Entries after “also recorded” stand apart in the source; their conditions may differ.
Experiments:
ARPE19 cells [1] = assay: Estimation of autophagosome number in RPE cells (GFP-RFP-LC3 puncta); assay type: cell-based, human; conditions: chloroquine as positive control
Experimental: The cells were then treated with 10^7 vg/ml of an Ad-LCN-2 construct (as described above) for 48 h. […] Confocal images were acquired at 60× using Nikon NIS Elements v5.3(Nikon, Melville NY). 3D spot detection was used to segment positive structures for size, shape and intensity for RFP/GFP, and RFP only puncta were identified.

Cryba1 KO RPE explants = assay: Rescue experiments in RPE explants exposed to FAC and Ad-LCN-2 (Western blot, ROS); assay type: cell-based, mouse; conditions: pre-treatment, then FAC and Ad-LCN-2
Text: RPE explant culture was done as previously described (Shang et al., Commun. Biol., 4(1): 850 (2021)). Briefly, eyeballs were enucleated from WT, Cryba1 KO, Sting KO or Sting^GT mice respectively, immediately after euthanasia by putting in CO2 chamber. The posterior eyecups were cut into four petals after the removal of anterior segments and the neural retina was carefully removed. The resulting RPE-Choroid-Sclera (RCS) complexes were flattened onto PVDF membranes with the RPE cells facing up and cultured as previously described. For experiments involving iron regulation, RPE explants from different genotypes were cultured in presence of ferric ammonium citrate (FAC, Sigma Aldrich, RES20400-A702X) at a dose of 250 μM for 72 h (Hadziahmetovic et al., Am. J Pathol., 179(1): 335-48 (2011)); Chothe et al., Biochem. Biophys. Res. Commun., 405(2): 244-9 (2011)), Adenovirus-LCN-2 (10^7 vg/ml, Ad-LCN-2, Vector Biolabs, ADV-263329) construct for 48 h and with or without chloroquine (ChQ; Sigma Aldrich, C6628-25G), a lysosomal blocker at a dose of 50 μM for the last 6 h of the experimental duration. For rescue experiments, Cryba1 KO explants were cultured and pre-treated with either Def (100 μM for 24 h; Sigma Aldrich, D9533-1G) or Sting inhibitor (H-151; 1 μM for 6 hours; Invitrogen, inh-h151) which was followed by FAC and Ad-LCN-2 treatment as explained above.
Whole cells lysates were made from RPE cells harvested from Cryba1^fl/fl or Cryba1 cKO mice or from in vitro RPE flat mount cultures from different experimental conditions as explained previously. The lysates were either made in 1×RIPA buffer (EMD Milipore, Cat #20-188) or NATIVE lysis buffer (Abcam, ab156035) containing 0.1% of a protease inhibitor cocktail (Sigma Aldrich, 13786) and 0.1% phosphatase inhibitor cocktail (Sigma Aldrich, P0044-5ML). The protein extracts were subjected to quantification by using the Pierce BCA Protein Assay Kit (Thermo Fisher, 23225). The RIPA protein samples were mixed with 4× protein sample buffer (Life Technologies, NP0007) containing 5% 2-mercaptoethanol (Sigma Aldrich, M6256) and heated at 95° C. for 10 min to denature. The native protein samples were mixed with NATIVE sample buffer (Bio-Rad, 1610738) at a 1:1 ratio. The native samples were loaded on NATIVE-PAGE gels (Thermo Fisher, BN1002BOX) and run using NATIVE-PAGE running buffer (Thermo Fisher, BN2001). Samples were loaded onto a 4-12% Bis-Tris Nu-PAGE gel (Invitrogen, NP0323BOX) and run with MES buffer (Invitrogen, NP0002). Proteins were transferred to nitrocellulose membranes (Invitrogen, 1B23001), which were then blocked in 5% blocking grade skim milk (Bio-Rad, 170-6404) or 5% BSA (Sigma Aldrich, A3912-50G) for phosphorylated proteins. The membranes were incubated with the appropriate primary antibody overnight followed by horseradish peroxidase-conjugated anti-rabbit (KPL, 074-1506) or anti-mouse (KPL, 074-1806) secondary antibodies for 1 h at RT. A chemiluminescence development technique was utilized to develop the blots (GE Healthcare, RPN2209) and the blots were imaged using the Azure imaging system (Azure Biosystems, USA). […]
The ROS generation in 10-month-old RPE cells from Cryba1^fl/fl and Cryba1 cKO mice was evaluated as described previously (Ghosh et al., Cell Signal., 68: 109521 (2020)). […]

ARPE19 cells [2] = assay: Live cell imaging of lipid peroxidation with liperfluo dye; assay type: cell-based, human
Experimental: To assess the levels of lipid peroxidation in RPE cells, ARPE19 cells were cultured on four chambered dishes (VWR, 627871) and then either left untreated (control) or treated with 250 μM of ferric ammonium citrate (FAC) for 72 h to mimic the increased iron levels in vivo, followed by Ad-LCN-2 (10^7 vg/ml) for the last 48 h and chloroquine (50 μM) for the last 6 h of the experimental duration respectively. RSL3 (3 μM, overnight; Cayman Chemicals, 19288) was used as a positive control for ferroptosis activation. The clone #6 monoclonal antibody targeting LCN-2 (mAb; 1 μg/ml, 24 h) antibody and 25 μM (overnight) of ferrostatin-1 (Cayman Chemicals, 17729) were added to the culture to rescue ferroptosis induction in the RPE cells. Prior to imaging, the cells were incubated with Liperfluo (10 μM, Fisher Scientific, L24810) for 30 min, and washed twice with PBS before replacing the original media in each chamber. […] Liperfluo was excited using a diode-pumped light engine (SPECTRA X, Lumencor) and detected using an Prime95b sCMOS camera (Photometrics) and excitation and emission filters from Chroma. […] Data was collected and liperfluo emissions were analyzed using NIS Elements (Nikon, Inc. Melville, NY).

Human ATG4B [3] = biological target: T1, Human ATG4B (Homo sapiens, UniProt Q9Y4P1); assay: Cell free ATG4B activity assay (LC3-GST cleavage); assay type: biochemical; conditions: ATG4B 0.5 μg/ml, LCN-2 1.0 μg/ml, 15 minutes; listed as human recombinant LCN-2
T1 construct: purchased Abcam ab188707
T1 sequence (Q9Y4P1 1-393): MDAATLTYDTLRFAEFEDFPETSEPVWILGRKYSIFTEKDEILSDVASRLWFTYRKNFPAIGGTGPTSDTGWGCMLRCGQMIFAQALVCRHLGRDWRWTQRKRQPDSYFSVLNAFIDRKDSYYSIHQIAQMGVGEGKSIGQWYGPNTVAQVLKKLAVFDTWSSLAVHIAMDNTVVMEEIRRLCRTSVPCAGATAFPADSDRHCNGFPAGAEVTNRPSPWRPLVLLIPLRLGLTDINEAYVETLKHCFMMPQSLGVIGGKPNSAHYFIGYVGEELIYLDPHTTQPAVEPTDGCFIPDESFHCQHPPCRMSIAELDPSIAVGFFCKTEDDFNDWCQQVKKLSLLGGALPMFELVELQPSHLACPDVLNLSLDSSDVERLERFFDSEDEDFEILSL
Experimental: ATG4B activity assay was measured by incubating recombinant human LC3-GST (Enzo, BML-UW1155-0500) at a dose of 20 μg/ml with 0.5 μg/ml of human ATG4B (Abcam, ab188707) with or without human LCN-2 (R&D Systems, 1757-LC-050) at a dose of 1 μg/ml for 15 min at room temperature (Pengo et al., Nat. Commun., 8(1): 294 (2017)). The protein samples were then mixed with 4× protein sample buffer (Life Technologies, NP0007) containing 5% 2-mercaptoethanol (Sigma Aldrich, M6256) and heated at 95° C. for 10 min to denature. The samples were then subjected to Western blot using the anti-GST primary antibody (Cell Signaling USA, 2622S) as previously explained (Ghosh et al., J. Pathol., 241(5): 583-588 (2017); Shang et al., Aging Cell, 16(2): 349-359 (2017)).

Human ATG4B [4] = biological target: T1, Human ATG4B; assay: Thermal shift assay with sypro orange; assay type: binding; conditions: ATG4B incubated with human LCN-2, vs ATG4B only
Experimental: (§1) Changes in melting temperature (Tm) was assessed to evaluate the binding propensity of LCN-2 and ATG4B. Human ATG4B (Abcam, ab188707) at a dose of 0.5 μg/ml with or without 1 μg/ml of human LCN-2 (R&D Systems, 1757-LC-050) and 5 μM sypro orange (Thermo Fisher, S-6650) were incubated for 30 min at 4° C. The change in Tm was evaluated in a quantitative PCR machine (ABI Systems, USA) using a previously published method (Huynh et al., Curr. Protoc. Protein Sci., 79: 28.9.1-28.9.14 (2015); Layton et al., Protein Sci., 20(8): 1439-50 (2011)).

ATG4B activity = assay: GFP-LC3-RFP-ΔLC3 construct and flow cytometry (ATG4B-mediated LC3 processing); assay type: cell-based, human; conditions: recombinant LCN-2 1.0 μg/ml for 24 h; relative to control
Experimental: ARPE19 cells were cultured up to 60% confluency and then transfected with the GFP-LC3-RFP-ΔLC3 construct (Addgene, 84572), to assess ATG4B activity, using the manufacturer's protocol of the Lipofectamine 3000 Transfection Reagent (Thermo Fisher, L3000008) for 72 h (Ghosh et al., Commun. Biol., 4(1): 248 (2021)). The transfection efficiency was confirmed by visualizing the GFP and RFP signals in the transfected cells using a fluorescence microscope. This was followed by infection with an Ad-LCN-2 construct (as described above) for 48 h and treatment with recombinant human LCN-2 protein (R&D Systems, 1757-LC-050) at a dose of 1 μg/ml for 24 h in separate experiments. The cells were then scraped off the plates and were analyzed by flow cytometry using the LSR-II platform ([…]). The results were analyzed using the FlowJo software (v10.8) and the data from each group was represented as the ratio of median GFP fluorescence to RFP fluorescence (Kaizuka et al., Mol. Cell, 64(4): 835-849 (2016); Ghosh et al., Commun. Biol., 4(1): 248 (2021)).

[5] = biological target: T2, recombinant human ATG4B (Abcam, ab188707) (human, UniProt Q9Y4P1 1-393, limits assumed); assay: thermal shift assay with sypro orange
T2 construct: Bought recombinant protein; also called human recombinant ATG4B; Autophagy Related 4B Cysteine Peptidase
T2 sequence (looked up): T1 sequence (Q9Y4P1 1-393)
Experimental: FIGS. 2C-2D are line (2C) and dot plot (2D) graphs showing the results of a thermal shift assay. […] The melting temperature is reflective of the change in sypro orange fluorescence (arbitrary units) which was added (5 μM) to each reaction mixture. n=4. All values are Mean±SD. Significant change is indicated by *P<0.05.
as §1

In the case of `CCN(CC)CCCC(C)Nc1ccnc2cc(Cl)ccc12` (stereo not shown) [Chloroquine, chloroquine], the “number of puncta (autophagosomes)” value (ARPE19 cells [1]) is reported as “highly increased puncta”.

For `CCc1ccc(NC(=O)Nc2c[nH]c3ccccc23)cc1` [Clone H-151], the “STING levels (Western blot)” value (Cryba1 KO RPE explants) was “such changes were not observed”, the “cGAS levels (Western blot)” value (Cryba1 KO RPE explants) was “such changes were not observed” and the “NLRP3 levels (Western blot)” value (Cryba1 KO RPE explants; vs vehicle (DMSO)) was “significantly reduced; also recorded: rescued the levels of NLRP3 inflammasome expression”. The “SOD1 levels (Western blot)” value (Cryba1 KO RPE explants; vs vehicle (DMSO)) was “decreased” and the ROS levels (Cryba1 KO RPE explants; vs vehicle, listed as STING inhibitor) was “decreased; also recorded: rescued”.

`COC(=O)c1ccc([C@@H]2c3[nH]c4ccccc4c3C[C@@H](C(=O)OC)N2C(=O)CCl)cc1` [RSL3, reference compound] was tested, and the “lipid peroxidation (liperfluo emission intensity)” value (ARPE19 cells [2]; RSL3 alone as positive control, compared to control) was “induced lipid peroxidation; also recorded: higher iperfluo emission intensity”.

`CCOC(=O)c1ccc(NC2CCCCC2)c(N)c1` [ferrostatin-1, reference compound] was tested, and the “lipid peroxidation (liperfluo emission intensity)” value (ARPE19 cells [2]; ferrostatin-1 pre-treatment of FAC+Ad-LCN-2+Chloroquine (FLC) treated cells) was “could rescue the lipid peroxidation; also recorded: abrogated the changes”.

B1: human recombinant LCN-2 (R&D Systems, 1757-LC-050) (other)
chain: QDSTSDLIPAPPLSKVPLQQNFQDNQFQGKWYVVGLAGNAILREDKDPQKMYATIYELKEDKSYNVTSVLFRKKKCDYWIRTFVPGCQPGEFTLGNIKSYPGLTSYLVRVVSTNYNQHAMVFFKKVSQNREYFKITLYGRTKELTSELKENFIRFSKSLGLPENHIVFPVPIDQCIDG
notes: Bought protein; also called human LCN-2 protein; recombinant human LCN-2
B1 was tested, and the “ATG4B activity (GST cleavage from LC3-GST, Western blot)” value (Human ATG4B [3]) was “Decreased GST cleavage; also recorded: could inhibit LC3 processing through the inhibition of Atg4b activity”, the “melting temperature (Tm) shift of ATG4B” value (Human ATG4B [4]; listed as human LCN-2 protein) was “increase in melting temperature” and the “melting temperature (Tm) shift of ATG4B” value (Human ATG4B [4]; listed as human recombinant LCN-2) was “consistent with binding between the two proteins”. The “GFP/RFP ratio (LC3 processing/lipidation)” value (ATG4B activity) was “GFP fluorescence was increased; also recorded: increase in the GFP/RFP ratio” and the binding result [5] was “binds”.

Reference: patent publication US20250042983A1, “ANTI-LCN-2 ANTIBODIES AS A TREATMENT FOR EYE DISORDERS” (UNIVERSITY OF PITTSBURGH - OF THE COMMONWEALTH SYSTEM OF …, priority 2021, published 2025)
